# Tests used:
# [1] = test system: HIV-1 virus of the patient (protease and inverse transcriptase genes); assay: ViroSeq genotyping, evidence of resistance from the amplicon of patient plasma; settings: M184V, T215Y, L63P
# Excerpt: (§1) The procedure to generate the first specific amplicon is as follows: • 1) Viral RNA contained in a biological sample is extracted. The biological sample may be derived from a sample from the patient. It may be a blood or serum sample, but may also come from a biological fluid or a biopsy or any other tissue preparation. The biological sample may also come from a viral culture. In a general manner, a biological sample corresponds to all types of samples containing one or several HIV-1 variants. The term “HIV-1 virus” in this Example is used to mean any viral strain belonging to the sub-types B and non-B. • 2) The RNA obtained in (1) is retrotranscribed and amplified with one of the pairs of specific primers in Table 1 below to obtain an amplicon characterized by: […]
# (§2) Tables 2 and 3 below show two examples of samples of plasma in patients 1 and 2, respectively, for which the amplicons generated by the method above have made it possible to implement the genotyping according to the Trugene and Viroseq techniques and phenotyping according to the Phenoscript technique.
# The RNA is extracted using plasmas from patients according to a known extraction technique based on the affinity of RNA with respect to silica columns, the viral RNA is retrotranscribed and amplified using PCR with primers specific to the pol gene making possible amplification of a sequence of nucleic acids of 1800 pb comprising, for the protease, codons 1 to 99 and comprising, for the inverse transcriptase, codons 1 to 335. The DNA thus obtained is then sequenced with seven different primers according to the Big Dye™ Terminator technology, a sequencing technique using dye terminators. The sequence reaction is initiated by each specific non-labeled primer, then interrupted by each of the labeled nucleotides. All of the fragments synthesized are then separated on electrophoresis gel. The color of the fluorochrome will then be registered using an automatic sequencer (ABI Prism 377 DNA sequencer), specifically indicating the fragments ending with each of the four labeled nucleotides. The sequences, once reconstituted, are compared to the sequence of a reference virus using an alignment software.
# (§3) The measurement of genetic variability is carried out using a specific sequence of nucleic acids amplified according to aspects of the method, then analyzed according to known sequencing techniques (Trugene, ViroSeq). Mutations in the genes of the protease and of the inverse transcriptase identified by these tests are interpreted according to algorithms that are updated regularly. A first score of 0 to 2 is attributed to each of the three levels of resistance determined by the interpretation. Table 11 below summarizes the interpretations given by the Trugene and ViroSeq tests as a function of the mutations identified and of the anti-retroviruses (ARV) used and assigns a genotypical score corresponding to the magnitude of the resistance.
# [2] = test system: HIV-1 virus of the patient (protease and inverse transcriptase genes); assay: Trugene genotyping, interpretation of resistances from the amplicon of patient plasma; settings: M184V, T215Y, L63P
# Excerpt: as §1, §2
# The Trugene HIV-1 genotyping kit is used to determine the genotype of the virus of sub-types B and non-B. The RNA is extracted using plasma from patients, according to known techniques, the viral RNA is retrotranscribed and amplified using PCR with primers specific for the pol gene making possible amplification of a sequence of nucleic acids of 1300 pb comprising, for the protease, codons 1 to 99 and comprising, for the inverse transcriptase, codons 1 to 247. The product of RT-PCR thus obtained is used in each of the 16 sequencing reactions by using the principle of CLIP™ reaction, sequencing technique using labeled primers (dye primers). Four pairs of different primers are used for this sequencing method, two pairs for the sequencing of the protease and two other pairs for the sequencing of the inverse transcriptase. Each sequence reaction is initiated by a specific dye primer (CLIP™), then interrupted by the corresponding labeled nucleotide. All of the fragments synthesized are then separated on electrophoresis gel and analyzed by an automatic sequencer specifically indicating the fragments ending with each of the four labeled nucleotides. The sequences, once reconstituted, are compared to the sequence of a reference virus using an alignment software.
# as §3
# [3] = test system: HIV-1 virus of the patient (recombinant virus); assay: Phenoscript phenotyping, recombinant virus of the patient in the presence of drugs; type: cell-based
# Excerpt: The principle of the phenotypical tests for resistance is based on the measurement in vitro of the growth of a virus in the patient in the presence of drugs.
# Viral RNA derived from the plasma is extracted, then the regions coding for inverse transcriptase and/or protease are amplified using PCR in phenotypical tests. Amplicons are recombined in vitro in a defective vector to form a viral particle. This viral particle is placed in a culture in the presence of increasing concentrations of drugs. The results are expressed in a “fold change” ratio of IC 50 (or IC90) with respect to a control virus which corresponds to the concentration of the drug that inhibits 50% (or 90%) of the viral replication in comparison to the reference wild type virus. The resistance level is defined as a function of thresholds of sensitivity (cut off).
# as §2
# The principle of the tests of phenotypical resistance is based on the measurement in vitro of the growth of a virus in the patient in the presence of drug(s)/active agent(s), compared to a reference virus (resistance index). The level of resistance is defined as a function of thresholds of sensitivity (cut off). A second score of 0 to 2 is attributed to each of the three levels of resistance determined by the interpretation. Table 12 summarizes the interpretations given by the main phenotypical tests, PhenoSense and Phenoscript, as a function of their thresholds of sensitivity and assigns a phenotypical score corresponding to the magnitude of resistance.
# [4] = Patient 1 plasma sample, mutations D67N, K70R, K219E, K103N, V108I, P225H
# [5] = Patient 2 plasma sample, mutations M41L, L210W, M36L
structure (smiles),measurement,setting,value
Nc1ccn([C@@H]2CS[C@H](CO)O2)c(=O)n1 [3TC],Viroseq Evidence of resistance,[1]; [4],High
same,Viroseq Evidence of resistance,[1]; [5],High
same,Trugene Interpretation of resistances,[2]; [4],Resistance
same,Trugene Interpretation of resistances,[2]; [5],Resistance
same,Phenoscript Contribution to the therapeutic response,[3]; Patient 1 plasma sample,Improbable
same,Phenoscript Contribution to the therapeutic response,[3]; Patient 2 plasma sample,Improbable
Nc1nc(NC2CC2)c2ncn([C@H]3C=C[C@@H](CO)C3)c2n1 [ABC],Viroseq Evidence of resistance,[1]; [4],Possible
same,Viroseq Evidence of resistance,[1]; [5],Possible
same,Trugene Interpretation of resistances,[2]; [4],No resistance
same,Trugene Interpretation of resistances,[2]; [5],Resistance
same,Phenoscript Contribution to the therapeutic response,[3]; Patient 1 plasma sample,Possible
same,Phenoscript Contribution to the therapeutic response,[3]; Patient 2 plasma sample,Possible
CC(C)CN(C[C@@H](O)[C@H](Cc1ccccc1)NC(=O)O[C@H]1CCOC1)S(=O)(=O)c1ccc(N)cc1 [APV],Viroseq Evidence of resistance,[1]; [4],Zero
same,Viroseq Evidence of resistance,[1]; [5],Zero
same,Trugene Interpretation of resistances,[2]; [4],No resistance
same,Trugene Interpretation of resistances,[2]; [5],No resistance
same,Phenoscript Contribution to the therapeutic response,[3]; Patient 1 plasma sample,Probable
same,Phenoscript Contribution to the therapeutic response,[3]; Patient 2 plasma sample,Probable
Cc1cn([C@H]2C[C@H](N=[N+]=[N-])[C@@H](CO)O2)c(=O)[nH]c1=O [AZT],Viroseq Evidence of resistance,[1]; [4],High
same,Viroseq Evidence of resistance,[1]; [5],High
same,Trugene Interpretation of resistances,[2]; [4],Resistance
same,Trugene Interpretation of resistances,[2]; [5],Resistance
same,Phenoscript Contribution to the therapeutic response,[3]; Patient 1 plasma sample,Improbable
same,Phenoscript Contribution to the therapeutic response,[3]; Patient 2 plasma sample,Improbable
CC(C)Nc1cccnc1N1CCN(C(=O)c2cc3cc(NS(C)(=O)=O)ccc3[nH]2)CC1 [DLV],Viroseq Evidence of resistance,[1]; [4],High
same,Viroseq Evidence of resistance,[1]; [5],Zero
same,Trugene Interpretation of resistances,[2]; [4],Resistance
same,Trugene Interpretation of resistances,[2]; [5],No resistance
O=C1Nc2ccc(Cl)cc2[C@@](C#CC2CC2)(C(F)(F)F)O1 [EFV],Viroseq Evidence of resistance,[1]; [4],High
same,Viroseq Evidence of resistance,[1]; [5],Zero
same,Trugene Interpretation of resistances,[2]; [4],Resistance
same,Trugene Interpretation of resistances,[2]; [5],No resistance
same,Phenoscript Contribution to the therapeutic response,[3]; Patient 1 plasma sample,Improbable
same,Phenoscript Contribution to the therapeutic response,[3]; Patient 2 plasma sample,Probable
CC(C)(C)NC(=O)[C@@H]1CN(Cc2cccnc2)CCN1C[C@@H](O)C[C@@H](Cc1ccccc1)C(=O)N[C@H]1c2ccccc2C[C@H]1O [IDV],Viroseq Evidence of resistance,[1]; [4],Zero
same,Viroseq Evidence of resistance,[1]; [5],Zero
same,Trugene Interpretation of resistances,[2]; [4],No resistance
same,Trugene Interpretation of resistances,[2]; [5],No resistance
same,Phenoscript Contribution to the therapeutic response,[3]; Patient 1 plasma sample,Probable
same,Phenoscript Contribution to the therapeutic response,[3]; Patient 2 plasma sample,Probable
Cc1cccc(C)c1OCC(=O)N[C@@H](Cc1ccccc1)[C@@H](O)C[C@H](Cc1ccccc1)NC(=O)[C@H](C(C)C)N1CCCNC1=O [LPV],Viroseq Evidence of resistance,[1]; [4],Zero
same,Viroseq Evidence of resistance,[1]; [5],Zero
same,Trugene Interpretation of resistances,[2]; [4],No resistance
same,Trugene Interpretation of resistances,[2]; [5],No resistance
same,Phenoscript Contribution to the therapeutic response,[3]; Patient 1 plasma sample,Probable
same,Phenoscript Contribution to the therapeutic response,[3]; Patient 2 plasma sample,Probable
Cc1c(O)cccc1C(=O)N[C@@H](CSc1ccccc1)[C@H](O)CN1C[C@H]2CCCC[C@H]2C[C@H]1C(=O)NC(C)(C)C [NFV],Viroseq Evidence of resistance,[1]; [4],Zero
same,Viroseq Evidence of resistance,[1]; [5],Possible
same,Trugene Interpretation of resistances,[2]; [4],No resistance
same,Trugene Interpretation of resistances,[2]; [5],No resistance
same,Phenoscript Contribution to the therapeutic response,[3]; Patient 1 plasma sample,Probable
same,Phenoscript Contribution to the therapeutic response,[3]; Patient 2 plasma sample,Probable
Cc1ccnc2c1NC(=O)c1cccnc1N2C1CC1 [NVP],Viroseq Evidence of resistance,[1]; [4],High
same,Viroseq Evidence of resistance,[1]; [5],Zero
same,Trugene Interpretation of resistances,[2]; [4],Resistance
same,Trugene Interpretation of resistances,[2]; [5],No resistance
same,Phenoscript Contribution to the therapeutic response,[3]; Patient 1 plasma sample,Improbable
same,Phenoscript Contribution to the therapeutic response,[3]; Patient 2 plasma sample,Probable
CC(C)c1nc(CN(C)C(=O)N[C@H](C(=O)N[C@@H](Cc2ccccc2)C[C@H](O)[C@H](Cc2ccccc2)NC(=O)OCc2cncs2)C(C)C)cs1 [RTV],Viroseq Evidence of resistance,[1]; [4],Zero
same,Viroseq Evidence of resistance,[1]; [5],Zero
same,Trugene Interpretation of resistances,[2]; [4],No resistance
same,Trugene Interpretation of resistances,[2]; [5],No resistance
CC(C)(C)NC(=O)[C@@H]1C[C@@H]2CCCC[C@@H]2CN1C[C@@H](O)[C@H](Cc1ccccc1)NC(=O)[C@H](CC(N)=O)NC(=O)c1ccc2ccccc2n1 [SQV],Viroseq Evidence of resistance,[1]; [4],Zero
same,Viroseq Evidence of resistance,[1]; [5],Zero
same,Trugene Interpretation of resistances,[2]; [4],No resistance
same,Trugene Interpretation of resistances,[2]; [5],No resistance
same,Phenoscript Contribution to the therapeutic response,[3]; Patient 1 plasma sample,Probable
same,Phenoscript Contribution to the therapeutic response,[3]; Patient 2 plasma sample,Probable
CC(C)OC(=O)OCOP(=O)(CO[C@H](C)Cn1cnc2c(N)ncnc21)OCOC(=O)OC(C)C.O=C(O)/C=C/C(=O)O [TDF],Trugene Interpretation of resistances,[2]; [4],No resistance
same,Trugene Interpretation of resistances,[2]; [5],Resistance
Cc1cn([C@H]2C=C[C@@H](CO)O2)c(=O)[nH]c1=O [d4T],Viroseq Evidence of resistance,[1]; [4],High
same,Viroseq Evidence of resistance,[1]; [5],Possible
same,Trugene Interpretation of resistances,[2]; [4],Resistance
same,Trugene Interpretation of resistances,[2]; [5],Resistance
same,Phenoscript Contribution to the therapeutic response,[3]; Patient 1 plasma sample,Probable
same,Phenoscript Contribution to the therapeutic response,[3]; Patient 2 plasma sample,Probable
Nc1ccn([C@H]2CC[C@@H](CO)O2)c(=O)n1 [ddC],Viroseq Evidence of resistance,[1]; [4],High
same,Viroseq Evidence of resistance,[1]; [5],High
O=c1[nH]cnc2c1ncn2[C@H]1CC[C@@H](CO)O1 [ddI],Viroseq Evidence of resistance,[1]; [4],Possible
same,Viroseq Evidence of resistance,[1]; [5],Possible
same,Trugene Interpretation of resistances,[2]; [4],Resistance
same,Trugene Interpretation of resistances,[2]; [5],Resistance
same,Phenoscript Contribution to the therapeutic response,[3]; Patient 1 plasma sample,Probable
same,Phenoscript Contribution to the therapeutic response,[3]; Patient 2 plasma sample,Possible
